Where two headings read alike, the source gives them in different places.
Experiments:
GRANTA-519 = test: Cell viability assay (CellTiter-Glo, ATP quantification); assay type: cell-based; conditions: Homo sapiens
Method: (§1) The 6 MCL cell lines (GRANTA-519, JEKO-1, MINO, MAVER-1, JVM-2 and REC-1) were purchased from the DSMZ (Leibniz-Institut DSMZ—Deutsche Sammlung von Mikroorganismen und Zellkulturen GmbH, Germany). They were maintained according to the supplier's recommendations. Cultures were maintained at 37° C. in a humidified atmosphere with 5% CO2.
(§2) MCL cell lines were cultured for 4 days in 96-well flat-bottom microtiter plates in RPMI 1640 medium or DMEM medium, 10% or 20% FCS (control medium) in the presence of various compounds. The number of viable cells in culture was determined using the CellTiter-Glo Luminescent Cell Viability Assay from Promega, Madison, Wis., USA using a Centro LB 960 luminometer (Berthold Technologies, Bad Wildbad, Germany).
(§3) This test is based on quantitation of the intracellular ATP present, which signals the presence of metabolically active cells. Data are expressed as the mean percentage of six replicates, normalized to the untreated control.
(§4) We investigated the therapeutic interest of iron metabolism inhibitors AM5 (Ironomycin) and AM23. The panel of 6 MCL cell lines were incubated with increasing concentrations of Ironomycin (FIG. 2 A), AM23 (FIG. 2 B) or vehicle for 96H (A). Inhibitory concentration 50% (IC50) was calculated with concentration-response curve after treatment with Ironomycin. Cell viability was examined using quantification of ATP assay. Data are expressed as mean percentage+/−SEM of at least three independent experiments performed in sixplicate. Tables 6 and 7 presenting the inhibitory concentration 50% (IC50) of Ironomycin and AM23 for the 6 MCL cell-lines.

JEKO-1 = test: as above; assay type: cell-based; conditions: Homo sapiens
Method: as §1, §2, §3, §4

JVM-2 = test: as above; assay type: cell-based; conditions: Homo sapiens
Method: as §1, §2, §3, §4

MAVER-1 = test: as above; assay type: cell-based; conditions: Homo sapiens
Method: as §1, §2, §3, §4

MINO = test: as above; assay type: cell-based; conditions: Homo sapiens
Method: as §1, §2, §3, §4

REC-1 = test: as above; assay type: cell-based; conditions: Homo sapiens
Method: as §1, §2, §3, §4

primary MCL cells = test: Primary MCL cells of patients cultured with CD40L, flow cytometry; assay type: cell-based, human
Method: (§5) In a first experiment, primary MCL cells were treated with Ironomycin and incubated during 96H with CD40L. The toxicity on MCL cells (A) and non-MCL cells (B) was analyzed by flow cytometry and expressed in % of control. N=5, Median+/−IQR, t-test of pairs. * P<0.05, ** P<0.01, *** P<0.001, **** P<0.0001.
These first results were further completed by additional experiments: primary MCL cell were treated with Ironomycin (C) or AM-23 (D) and incubated during 96H with recombinant CD40L.
Results represent the median±IQR of each population cells of nine (C) and six patients (D), respectively. Statistical significance was tested using t-test of pairs: * P<0.05, ** P<0.01 *** P<0.001, **** P<0.0001 and NS: non-significant.
(§6) Cells are obtained from lymph nodes or blood of 9 patients with MCL.
(§7) In a first experiment, primary MCL cells were treated with Ironomycin and incubated during 96H with CD40L. The toxicity on MCL cells (FIG. 7 A) and non-MCL cells (FIG. 7 B) was analyzed by flow cytometry and expressed in % of control.
The toxicity on MCL cells was analyzed by flow cytometry and expressed in % of control.

[1] = tested on: Jeko-1 and JVM-2 MCL cell lines; conditions: deferasirox 80 μM, Ironomycin 50 nM and 500 nM, 72H
Method: Jeko-1 and JVM2 cell line was pre-incubated with or without 80 μM of deferasirox or 50 nM and 500 nM of Ironomycin, respectively, for 4 hours followed by 72H incubation in presence or absence of FeCl3 (100 μM). Apoptosis was assessed using Annexin V-PE staining by flow cytometry.
AnnexinV-PE staining for apoptosis analysis was performed using the “PE Annexin V Apoptosis Detection Kit I” (559763, Becton Dickinson).
The inventors further investigated the effect of Iron supplementation on the cell death induced by these treatments. Iron chelator (Deferasirox) concentrations were chosen according the maximal plasmatic concentration achievable in the patient (Nisbet-Brown et al., 2003).

[2] = tested on: Jeko-1 and JVM-2 cell lines; test: Cell cycle analysis by flow cytometry (BrdU/DAPI); assay type: cell-based, human; conditions: IC50 Ironomycin for 24 hours
Method: Cells were incubated with vehicle or with IC50 Ironomycin for 24 hours.
The cell cycle progression was studied by flow cytometry using the Apoptosis, DNA Damage, and Cell Proliferation Kit (562253, Becton Dickinson). Briefly, cells were labeled with bromodeoxyuridine (BrdU), an analog of the DNA precursor thymidine that can be incorporated into newly synthesized DNA and detected with an antibody against BrdU to measure cell proliferation. After this labeling, the cells were fixed, permeabilized and treated with DNase to expose the BrdU epitopes. Following this treatment, cells were simultaneously stained with fluorochrome-labeled anti-BrdU, anti-cleaved Poly ADP-ribose polymerase 1 (PARP), anti-H2AX phosphorylated at serine 139. They were also stained with DAPI to determine DNA content. Finally, cells were resuspended in staining buffer and analyzed by flow cytometry (Fortessa, Becton Dickinson).
Cells were incubated with vehicle or with IC50 Ironomycin for 24 hours. […] (FIG. 4)

Phospho-H2A.X (S139) = test: Western blot of Phospho-H2A.X (S139), DNA damage response; assay type: cell-based, human; conditions: 100 nM for Jeko-1 and 500 nM for JVM-2, 24H
Method: Cells were treated with Ironomycin (100 nM for Jeko-1 and 500 nM for JVM-2) during 24H. Protein levels of Phospho-H2A.X (S139) were analyzed by western blot and normalized by β-actin protein level.
(§8) The total cell lysates were obtained with RIPA 1× lysis buffer (#9806, Cell Signaling®) according with the supplier recommendations.
Protein lysates migrate on 10% polyacrylamide gel (NP-0301, Novex, Life Technologies®), in MOPS 1× running buffer (NP0001, Novex, Life Technologies®) or MES 1× running buffer NP-0002, Novex, Life Technologies®) and proteins are transferred to nitrocellulose membrane (1B301001, I-Blot Transfert Starck, NuPAGE, Life Technologies®). The primary antibodies mouse-anti-phospho-Histone H2A.X (Ser139) clone JBW301 (1/1000, Merck Millipore), rabbit anti-cyclinD1 (#2926, 1/1000, Cell Signaling®), rabbit anti-phospho (S795)-Rb (#9301, 1/1000, Cell Signaling®), mouse anti-Rb (#9309, 1/1000, Cell Signaling®), mouse anti-CDK4 (#2906, 1/1000, Cell Signaling®) were incubated in TBS-Tween 20 0.1% (Tris-Buffered Saline, pH 7.4) with 5% non-fat milk or Bovine serum albumin (Sigma-Aldrich, A7906). […] Quantification of protein levels was performed with Image J® software (National Institutes of Health, Bethesda, Md., USA).
Protein levels of Phospho-H2A.X (S139) were analyzed by western blot and normalized by β-actin protein level (FIG. 5).

[3] = tested on: Cyclin D1, phospho-Rb, CDK4 in Jeko-1 and JVM2 cells; test: Western blot of cyclinD1, phospho-Rb, Rb and CDK4; assay type: cell-based, human; conditions: 100 nM Jeko-1, 500 nM JVM2, 24H
Method: Jeko-1 and JVM2 cells were treated with Ironomycin (100 nM and 500 nM, respectively) during 24H. Protein levels of cyclinD1, phospho-Rb, Rb and CDK4 were analyzed by western blot and normalized by the β-actin expression level. This Cyclin D1 downregulation is associated with a downregulation of Rb phosphorylation and CDK4 protein levels.
as §8
Protein lysates migrate on 10% polyacrylamide gel (NP-0301, Novex, Life Technologies®), in MOPS 1× running buffer (NP0001, Novex, Life Technologies®) or MES 1× running buffer NP-0002, Novex, Life Technologies®) and proteins are transferred to nitrocellulose membrane (1B301001, I-Blot Transfert Starck, NuPAGE, Life Technologies®). The primary antibodies mouse-anti-phospho-Histone H2A.X (Ser139) clone JBW301 (1/1000, Merck Millipore), rabbit anti-cyclinD1 (#2926, 1/1000, Cell Signaling®), rabbit anti-phospho (S795)-Rb (#9301, 1/1000, Cell Signaling®), mouse anti-Rb (#9309, 1/1000, Cell Signaling®), mouse anti-CDK4 (#2906, 1/1000, Cell Signaling®) were incubated in TBS-Tween 20 0.1% (Tris-Buffered Saline, pH 7.4) with 5% non-fat milk or Bovine serum albumin (Sigma-Aldrich, A7906). Protein levels are objectified by labeling with an anti-β-actin mouse monoclonal antibody (Sigma, A5441, St Louis, Mo., USA 1/1000). Primary antibodies are visualized with secondary anti-rabbit antibodies (Sigma®, A9169) or anti-mouse antibodies (Jackson, 115-036-068) coupled to peroxidase allows the development by chemiluminescence by Western Lightning ECL (NEL121001EA, Perkin Elmer®). Quantification of protein levels was performed with Image J® software (National Institutes of Health, Bethesda, Md., USA).
Mantle cell lymphoma (MCL) is now recognized as an aggressive B-cell lymphoma with various growth patterns (mantle zone, nodular, or diffuse) and a broad range of cytologic features. […]

[4] = tested on: non-MCL cells (normal cells from the microenvironment); assay type: cell-based, human
Method: as §5, §6, §7

Jeko-1 and JVM-2 cells = test: Drug combination concentration matrix, cell viability by ATP quantification, Bliss synergy matrix; assay type: cell-based, human; conditions: 96 h
Method: Jeko-1 and JVM-2 cells were treated with increasing concentrations of ironomycin combined with ibrutinib (BTK inhibitor) for 96 h and cell viability was tested by ATP quantification to obtain the viability matrix. The synergy matrix was calculated as described in Material and Methods.
Jeko-1 and JVM-2 cells were treated with increasing concentrations of ironomycin combined with Venetoclax (BCL2 inhibitor) for 96 h and cell viability was tested by ATP quantification to obtain the viability matrix. The synergy matrix was calculated as described in Material and Methods.
Jeko-1 and JVM-2 cells were treated with increasing concentrations of ironomycin combined with doxorubicin for 96 h and cell viability was tested by ATP quantification to obtain the viability matrix. The synergy matrix was calculated as described in Material and Methods.
The interaction between the drugs tested in vitro was investigated with a concentration matrix test, in which increasing concentration of each single drug were assessed with all possible combinations of the other drugs. For each combination, the percentage of expected growing cells in the case of effect independence was calculated according to the Bliss equation (Combes et al., 2019): […]
where fuC is the expected fraction of cells unaffected by the drug combination in the case of effect independence, and fuA and fuB are the fractions of cells unaffected by treatment A and B, respectively. The difference between the fraction of living cells in the cytotoxicity test and the fuC value was considered as an estimation of the interaction effect, with positive values indicating synergism and negative values antagonism.
Synergy matrix was built with the R package “SynergyFinder”.

[5] = tested on: hematopoietic progenitors
[6] = Homo sapiens, 96 h, read-out: reduction of the median number of viable primary MCL cells

CC[C@@H](C(=O)[C@@H](C)[C@@H](O)[C@H](C)[C@@H]1O[C@@H]([C@@H](CC)C(=O)O)CC[C@@H]1C)[C@H]1O[C@]2(C=C[C@@H](NC3CC3)[C@]3(CC[C@@](C)([C@H]4CC[C@](O)(CC)[C@H](C)O4)O3)O2)[C@H](C)C[C@@H]1C [AM-23]
IC50 (GRANTA-519; Granta-519, 96 h): 0.845 µM | IC50 (JEKO-1; JeKo-1, 96 h): 0.008 µM | IC50 (JVM-2; JVM-2, 96 h): 0.058 µM | IC50 (MAVER-1; Maver1, 96 h): 0.0173 µM | IC50 (MINO; 96 h): 0.043 µM | IC50 (REC-1; Rec1, 96 h): 0.0068 µM | cytotoxicity at 0.01 µM (primary MCL cells; [6]): 34% | cytotoxicity at 0.02 µM (primary MCL cells; [6]): 58% | cytotoxicity at 0.05 µM (primary MCL cells; [6]): 60% | cytotoxicity at 0.1 µM (primary MCL cells; [6]): 64%

C#CCN[C@@H]1C=C[C@]2(O[C@H]([C@@H](CC)C(=O)[C@@H](C)[C@@H](O)[C@H](C)[C@@H]3O[C@@H]([C@@H](CC)C(=O)O)CC[C@@H]3C)[C@@H](C)C[C@H]2C)O[C@@]12CC[C@@](C)([C@H]1CC[C@](O)(CC)[C@H](C)O1)O2 [Ironomycin]
IC50 (GRANTA-519; GRANTA-519, 96H incubation, cell viability by ATP, read-out: IC50): 0.802 µM | IC50 (JEKO-1; JEKO-1, 96H incubation, cell viability by ATP, read-out: IC50): 0.0128 µM | IC50 (JVM-2; JVM-2, 96H incubation, cell viability by ATP, read-out: IC50): 0.139 µM | IC50 (MAVER-1; Maver1, MAVER-1, 96H incubation, cell viability by ATP, read-out: IC50): 0.0505 µM | IC50 (MINO; 96H incubation, cell viability by ATP, read-out: IC50): 0.0544 µM | IC50 (REC-1; Rec1, REC-1, 96H incubation, cell viability by ATP, read-out: IC50): 0.0534 µM | apoptosis monitored by Annexin V staining [1]: induces apoptosis | cell cycle [2]: induces MCL cell cycle defect | DNA damage response (Serine 139 phosphorylation of H2A.X) (Phospho-H2A.X (S139)): induces DNA damage response | CDK4 protein levels [3]: downregulation | Cyclin D1 protein level [3]: significant downregulation | RB phosphorylation [3]: downregulation | median number of viable primary MCL cells (first experiment) (primary MCL cells; 20 nM, 50 nM and 100 nM, 96H with CD40L, N=5): significantly reduced | cytotoxicity at 0.02 µM (primary MCL cells; [6]): 30% | cytotoxicity at 0.05 µM (primary MCL cells; [6]): 46% | cytotoxicity at 0.1 µM (primary MCL cells; [6]): 53% | toxicity for non-tumor cells from the microenvironment [4]: without major toxicity | toxicity in MCL cells compared to normal cells from the microenvironment [4]: higher toxicity in MCL cells compared to normal cells | interaction effect in combination with Doxorubicin (Jeko-1 and JVM-2 cells): synergistic effect | interaction effect in combination with Ibrutinib (BTK inhibitor) (Jeko-1 and JVM-2 cells): synergistic effect | interaction effect in combination with Venetoclax (Bcl2 inhibitor) (Jeko-1 and JVM-2 cells): synergistic effect | toxicity on hematopoietic progenitors [5]: low toxicity
